According to ChEMBL document CHEMBL5442175, “EUbOPEN Chemogenomics Library - PDSP Secondary Binding” (2024):
pKi: −log10 of the molar value.

Tests used:
[1] = target: Sigma intracellular receptor 2 (Homo sapiens, UniProt Q5BJF2); assay: (§1) PDSP Secondary Binding target: TMEM97 - Compounds are tested at 10 uM concentration, plate are incubated at room temperature in the dark for 90 minutes. Reaction are stopped by vacuum filtration onto 0.3% polyethyleneimine soaked filter mats using Filtermate harvester. Scintillation cocktail is then melted onto microwave-dried filters on a hot plate and the radio activity is counted in Microbia counter.
Sigma intracellular receptor 2, sequence (Q5BJF2 whole entry): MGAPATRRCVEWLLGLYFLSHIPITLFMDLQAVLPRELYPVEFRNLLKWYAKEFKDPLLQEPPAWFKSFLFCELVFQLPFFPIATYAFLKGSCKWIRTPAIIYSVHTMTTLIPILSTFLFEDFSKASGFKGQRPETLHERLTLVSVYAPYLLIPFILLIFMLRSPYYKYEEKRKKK

[2] = target: Sodium-dependent serotonin transporter (Homo sapiens, UniProt P31645); assay: as §1, with “SLC6A4” for “TMEM97”
Sodium-dependent serotonin transporter, sequence (P31645 whole entry): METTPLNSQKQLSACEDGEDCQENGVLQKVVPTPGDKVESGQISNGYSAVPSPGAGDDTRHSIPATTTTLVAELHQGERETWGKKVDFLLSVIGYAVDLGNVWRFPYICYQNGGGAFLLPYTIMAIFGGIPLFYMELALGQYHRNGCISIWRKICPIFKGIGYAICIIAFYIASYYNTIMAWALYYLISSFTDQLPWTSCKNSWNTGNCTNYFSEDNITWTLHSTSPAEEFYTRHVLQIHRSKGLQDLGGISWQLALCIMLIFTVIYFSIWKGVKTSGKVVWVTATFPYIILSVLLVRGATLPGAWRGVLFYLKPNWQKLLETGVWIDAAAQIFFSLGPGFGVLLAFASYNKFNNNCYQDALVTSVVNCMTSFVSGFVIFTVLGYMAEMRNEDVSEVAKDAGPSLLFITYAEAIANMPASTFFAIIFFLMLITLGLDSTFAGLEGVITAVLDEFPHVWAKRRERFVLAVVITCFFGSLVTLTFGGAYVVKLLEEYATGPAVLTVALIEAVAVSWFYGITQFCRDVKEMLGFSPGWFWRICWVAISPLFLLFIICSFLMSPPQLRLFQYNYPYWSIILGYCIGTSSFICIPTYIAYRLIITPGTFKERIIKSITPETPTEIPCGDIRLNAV

Mu-type opioid receptor = Mu-type opioid receptor (Homo sapiens, UniProt P35372); assay: as §1, with “OPRM1” for “TMEM97”
Mu-type opioid receptor, sequence (P35372 whole entry): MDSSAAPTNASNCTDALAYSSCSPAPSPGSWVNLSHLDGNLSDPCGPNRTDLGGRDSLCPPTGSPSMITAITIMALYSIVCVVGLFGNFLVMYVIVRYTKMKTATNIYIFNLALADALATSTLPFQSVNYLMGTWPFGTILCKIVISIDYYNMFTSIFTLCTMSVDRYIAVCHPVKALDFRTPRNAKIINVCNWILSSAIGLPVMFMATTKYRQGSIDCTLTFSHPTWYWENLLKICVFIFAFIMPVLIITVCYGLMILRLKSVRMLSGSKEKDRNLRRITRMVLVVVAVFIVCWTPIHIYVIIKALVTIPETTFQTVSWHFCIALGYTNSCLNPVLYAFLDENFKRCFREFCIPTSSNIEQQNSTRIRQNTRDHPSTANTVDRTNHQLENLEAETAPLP

[3] = target: T1, Alpha-2B adrenergic receptor (Homo sapiens, UniProt P18089); assay: as §1, with “ADRA2B” for “TMEM97”
T1 sequence (P18089 whole entry): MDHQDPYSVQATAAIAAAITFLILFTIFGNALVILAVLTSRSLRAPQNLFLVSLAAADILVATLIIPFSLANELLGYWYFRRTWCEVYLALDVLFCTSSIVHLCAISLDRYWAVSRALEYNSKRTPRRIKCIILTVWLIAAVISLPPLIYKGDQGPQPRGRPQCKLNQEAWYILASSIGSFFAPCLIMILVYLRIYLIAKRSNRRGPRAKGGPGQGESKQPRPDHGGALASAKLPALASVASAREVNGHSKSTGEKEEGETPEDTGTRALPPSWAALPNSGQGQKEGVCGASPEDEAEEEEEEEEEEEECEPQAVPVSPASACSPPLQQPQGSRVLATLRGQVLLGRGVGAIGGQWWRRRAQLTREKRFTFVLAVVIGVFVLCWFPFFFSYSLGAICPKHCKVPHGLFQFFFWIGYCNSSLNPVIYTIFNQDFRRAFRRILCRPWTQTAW

D(1B) dopamine receptor = D(1B) dopamine receptor (Homo sapiens, UniProt P21918); assay: as §1, with “DRD5” for “TMEM97”
D(1B) dopamine receptor, sequence (P21918 whole entry): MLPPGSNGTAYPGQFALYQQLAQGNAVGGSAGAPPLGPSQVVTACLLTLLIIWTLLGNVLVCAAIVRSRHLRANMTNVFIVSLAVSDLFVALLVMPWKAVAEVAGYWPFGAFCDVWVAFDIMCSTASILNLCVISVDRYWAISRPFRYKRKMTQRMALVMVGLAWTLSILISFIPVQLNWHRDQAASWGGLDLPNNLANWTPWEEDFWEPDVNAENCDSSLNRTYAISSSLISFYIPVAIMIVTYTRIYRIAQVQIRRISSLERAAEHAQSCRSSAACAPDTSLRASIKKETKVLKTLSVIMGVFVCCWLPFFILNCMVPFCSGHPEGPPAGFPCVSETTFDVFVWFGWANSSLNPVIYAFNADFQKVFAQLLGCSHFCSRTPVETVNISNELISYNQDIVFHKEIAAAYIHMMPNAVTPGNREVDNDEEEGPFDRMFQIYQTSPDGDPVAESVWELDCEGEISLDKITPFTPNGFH

[4] = target: Kappa-type opioid receptor (Homo sapiens, UniProt P41145); assay: as §1, with “OPRK1” for “TMEM97”
Kappa-type opioid receptor, sequence (P41145 whole entry): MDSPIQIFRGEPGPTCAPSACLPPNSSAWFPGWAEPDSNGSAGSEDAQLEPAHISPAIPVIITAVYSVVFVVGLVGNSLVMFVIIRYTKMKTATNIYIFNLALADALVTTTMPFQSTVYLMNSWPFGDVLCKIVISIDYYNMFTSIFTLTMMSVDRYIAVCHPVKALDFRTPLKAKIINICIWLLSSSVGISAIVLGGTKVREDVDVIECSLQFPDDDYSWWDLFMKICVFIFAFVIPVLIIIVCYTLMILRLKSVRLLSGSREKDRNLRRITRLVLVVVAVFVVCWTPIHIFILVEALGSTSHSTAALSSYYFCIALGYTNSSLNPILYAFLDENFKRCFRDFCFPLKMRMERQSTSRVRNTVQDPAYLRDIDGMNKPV

D(3) dopamine receptor = D(3) dopamine receptor (Homo sapiens, UniProt P35462); assay: as §1, with “DRD3” for “TMEM97”
D(3) dopamine receptor, sequence (P35462 whole entry): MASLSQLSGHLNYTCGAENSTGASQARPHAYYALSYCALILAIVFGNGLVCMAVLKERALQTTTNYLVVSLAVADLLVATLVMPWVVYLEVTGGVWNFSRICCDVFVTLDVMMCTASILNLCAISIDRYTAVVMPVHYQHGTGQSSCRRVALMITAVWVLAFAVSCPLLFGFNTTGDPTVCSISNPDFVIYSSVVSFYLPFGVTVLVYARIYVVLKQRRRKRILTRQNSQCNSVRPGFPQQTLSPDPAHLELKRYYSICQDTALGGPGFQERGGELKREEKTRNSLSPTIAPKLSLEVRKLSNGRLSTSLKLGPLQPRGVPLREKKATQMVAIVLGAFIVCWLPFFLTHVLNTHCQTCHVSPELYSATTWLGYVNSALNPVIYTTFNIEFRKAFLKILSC

[5] = target: T2, Alpha-2A adrenergic receptor (Homo sapiens, UniProt P08913); assay: as §1, with “ADRA2A” for “TMEM97”
T2 sequence (P08913 whole entry): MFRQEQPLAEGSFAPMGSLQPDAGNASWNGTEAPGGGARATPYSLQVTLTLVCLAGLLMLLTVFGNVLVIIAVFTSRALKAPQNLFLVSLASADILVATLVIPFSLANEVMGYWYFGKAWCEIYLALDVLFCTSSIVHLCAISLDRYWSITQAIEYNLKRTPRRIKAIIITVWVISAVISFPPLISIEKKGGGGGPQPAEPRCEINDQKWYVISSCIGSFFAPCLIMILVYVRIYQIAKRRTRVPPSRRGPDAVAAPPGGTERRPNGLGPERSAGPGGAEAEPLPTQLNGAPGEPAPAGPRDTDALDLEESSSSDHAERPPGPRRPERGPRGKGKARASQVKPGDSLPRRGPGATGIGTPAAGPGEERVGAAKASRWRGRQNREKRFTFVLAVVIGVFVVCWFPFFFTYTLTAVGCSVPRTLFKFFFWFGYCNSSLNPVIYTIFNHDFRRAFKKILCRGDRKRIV

[6] = target: T3, Alpha-2C adrenergic receptor (Homo sapiens, UniProt P18825); assay: as §1, with “ADRA2C” for “TMEM97”
T3 sequence (P18825 whole entry): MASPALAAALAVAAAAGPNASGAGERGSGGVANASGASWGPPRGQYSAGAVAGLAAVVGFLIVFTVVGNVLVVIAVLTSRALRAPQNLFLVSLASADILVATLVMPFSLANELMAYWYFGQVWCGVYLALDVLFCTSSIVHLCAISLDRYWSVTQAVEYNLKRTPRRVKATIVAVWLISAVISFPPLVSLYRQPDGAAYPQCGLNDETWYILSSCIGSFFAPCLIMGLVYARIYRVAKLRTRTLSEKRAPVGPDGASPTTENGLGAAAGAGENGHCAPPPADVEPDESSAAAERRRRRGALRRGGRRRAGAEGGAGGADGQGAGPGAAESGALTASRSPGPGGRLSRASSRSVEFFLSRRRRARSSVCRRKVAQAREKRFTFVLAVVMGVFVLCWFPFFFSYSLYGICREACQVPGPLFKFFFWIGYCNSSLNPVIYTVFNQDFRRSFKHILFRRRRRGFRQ

D(4) dopamine receptor = target: T4, D(4) dopamine receptor (Homo sapiens, UniProt P21917); assay: as §1, with “DRD4” for “TMEM97”
T4 sequence (P21917 whole entry): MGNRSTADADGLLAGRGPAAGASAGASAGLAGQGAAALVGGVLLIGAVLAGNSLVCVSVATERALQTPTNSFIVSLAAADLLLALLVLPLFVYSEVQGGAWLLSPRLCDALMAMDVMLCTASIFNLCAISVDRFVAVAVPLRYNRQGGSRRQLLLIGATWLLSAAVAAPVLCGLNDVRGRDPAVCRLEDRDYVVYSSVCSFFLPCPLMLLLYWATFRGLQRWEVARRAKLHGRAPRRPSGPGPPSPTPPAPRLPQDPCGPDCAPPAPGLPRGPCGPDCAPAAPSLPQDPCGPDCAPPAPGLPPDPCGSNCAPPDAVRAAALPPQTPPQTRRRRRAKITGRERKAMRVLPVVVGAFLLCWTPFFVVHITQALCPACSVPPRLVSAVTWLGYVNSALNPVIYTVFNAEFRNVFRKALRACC

[7] = target: Sodium-dependent noradrenaline transporter (Homo sapiens, UniProt P23975); assay: as §1, with “SLC6A2” for “TMEM97”
Sodium-dependent noradrenaline transporter, sequence (P23975 whole entry): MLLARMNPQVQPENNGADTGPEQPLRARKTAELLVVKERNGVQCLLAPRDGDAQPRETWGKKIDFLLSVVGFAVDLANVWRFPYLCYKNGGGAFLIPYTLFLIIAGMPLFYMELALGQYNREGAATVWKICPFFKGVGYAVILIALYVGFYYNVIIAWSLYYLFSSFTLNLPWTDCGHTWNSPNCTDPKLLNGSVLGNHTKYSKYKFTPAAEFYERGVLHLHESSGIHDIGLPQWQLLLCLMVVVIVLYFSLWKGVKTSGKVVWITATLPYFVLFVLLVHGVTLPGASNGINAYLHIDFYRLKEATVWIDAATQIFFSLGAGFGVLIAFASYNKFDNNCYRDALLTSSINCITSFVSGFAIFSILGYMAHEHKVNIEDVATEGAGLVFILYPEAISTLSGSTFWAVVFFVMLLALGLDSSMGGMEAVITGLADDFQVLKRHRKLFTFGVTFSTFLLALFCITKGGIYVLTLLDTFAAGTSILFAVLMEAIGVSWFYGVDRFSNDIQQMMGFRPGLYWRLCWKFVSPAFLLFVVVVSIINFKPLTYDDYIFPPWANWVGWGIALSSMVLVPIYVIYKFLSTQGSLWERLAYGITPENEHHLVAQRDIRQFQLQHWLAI

[8] = target: T5, Alpha-1B adrenergic receptor (Homo sapiens, UniProt P35368); assay: as §1, with “ADRA1B” for “TMEM97”
T5 sequence (P35368 whole entry): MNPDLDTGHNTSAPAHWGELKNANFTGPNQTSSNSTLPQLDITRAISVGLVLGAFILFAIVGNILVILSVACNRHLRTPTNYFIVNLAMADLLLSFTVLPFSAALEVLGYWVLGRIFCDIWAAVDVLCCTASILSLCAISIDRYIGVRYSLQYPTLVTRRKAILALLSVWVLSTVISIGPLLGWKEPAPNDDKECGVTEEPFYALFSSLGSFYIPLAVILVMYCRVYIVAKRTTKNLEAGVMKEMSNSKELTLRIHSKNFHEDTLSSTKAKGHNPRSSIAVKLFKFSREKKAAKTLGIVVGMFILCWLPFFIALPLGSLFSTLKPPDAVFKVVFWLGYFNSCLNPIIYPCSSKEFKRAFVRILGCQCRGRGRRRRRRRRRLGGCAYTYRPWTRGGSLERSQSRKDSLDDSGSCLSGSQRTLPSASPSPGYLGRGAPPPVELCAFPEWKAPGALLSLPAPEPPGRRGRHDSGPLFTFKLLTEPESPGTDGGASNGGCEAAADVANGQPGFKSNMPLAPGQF

[9] = target: Sodium-dependent dopamine transporter (Homo sapiens, UniProt Q01959); assay: as §1, with “SLC6A3” for “TMEM97”
Sodium-dependent dopamine transporter, sequence (Q01959 whole entry): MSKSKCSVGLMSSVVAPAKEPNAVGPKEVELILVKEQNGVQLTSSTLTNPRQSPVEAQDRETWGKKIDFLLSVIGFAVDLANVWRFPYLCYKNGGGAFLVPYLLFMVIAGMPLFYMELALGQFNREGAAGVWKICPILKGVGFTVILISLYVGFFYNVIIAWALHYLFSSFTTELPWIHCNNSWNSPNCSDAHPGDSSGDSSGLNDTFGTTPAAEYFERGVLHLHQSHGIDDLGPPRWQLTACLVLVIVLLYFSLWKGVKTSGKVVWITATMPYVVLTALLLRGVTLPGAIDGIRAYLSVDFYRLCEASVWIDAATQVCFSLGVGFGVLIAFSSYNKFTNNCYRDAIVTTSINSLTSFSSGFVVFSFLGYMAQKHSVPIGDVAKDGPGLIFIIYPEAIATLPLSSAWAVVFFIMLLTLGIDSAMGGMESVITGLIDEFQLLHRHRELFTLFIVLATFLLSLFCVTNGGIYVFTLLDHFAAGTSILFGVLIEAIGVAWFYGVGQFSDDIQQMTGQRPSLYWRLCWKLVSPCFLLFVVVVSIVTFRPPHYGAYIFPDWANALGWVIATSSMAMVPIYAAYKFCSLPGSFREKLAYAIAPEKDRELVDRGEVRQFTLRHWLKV

[10] = target: Beta-3 adrenergic receptor (Homo sapiens, UniProt P13945); assay: as §1, with “ADRB3” for “TMEM97”
Beta-3 adrenergic receptor, sequence (P13945 whole entry): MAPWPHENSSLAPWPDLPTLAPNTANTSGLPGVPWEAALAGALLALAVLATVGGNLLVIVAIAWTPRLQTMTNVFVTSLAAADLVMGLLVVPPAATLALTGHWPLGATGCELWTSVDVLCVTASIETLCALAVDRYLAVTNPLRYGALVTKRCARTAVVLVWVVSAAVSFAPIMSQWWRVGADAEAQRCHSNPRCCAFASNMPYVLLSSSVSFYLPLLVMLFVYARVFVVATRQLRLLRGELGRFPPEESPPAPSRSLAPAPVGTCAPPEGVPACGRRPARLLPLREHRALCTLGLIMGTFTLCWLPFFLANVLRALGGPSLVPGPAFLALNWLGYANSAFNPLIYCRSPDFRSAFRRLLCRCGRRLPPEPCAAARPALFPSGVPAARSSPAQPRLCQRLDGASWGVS

[11] = target: Sigma non-opioid intracellular receptor 1 (Homo sapiens, UniProt Q99720); assay: as §1, with “SIGMAR1” for “TMEM97”
Sigma non-opioid intracellular receptor 1, sequence (Q99720 whole entry): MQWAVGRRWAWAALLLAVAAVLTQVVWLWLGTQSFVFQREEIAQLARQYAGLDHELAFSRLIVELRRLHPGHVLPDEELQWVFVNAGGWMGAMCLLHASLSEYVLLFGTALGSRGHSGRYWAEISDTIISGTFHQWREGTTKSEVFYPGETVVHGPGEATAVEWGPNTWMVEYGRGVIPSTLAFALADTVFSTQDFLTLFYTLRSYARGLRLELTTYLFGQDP

Translocator protein = Translocator protein (Homo sapiens, UniProt P30536); assay: as §1, with “TSPO” for “TMEM97”
Translocator protein, sequence (P30536 whole entry): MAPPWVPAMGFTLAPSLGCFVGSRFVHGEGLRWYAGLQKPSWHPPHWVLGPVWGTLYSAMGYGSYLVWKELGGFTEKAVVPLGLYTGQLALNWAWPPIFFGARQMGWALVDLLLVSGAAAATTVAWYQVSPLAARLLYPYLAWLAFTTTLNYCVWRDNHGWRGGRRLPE

[12] = target: 5-hydroxytryptamine receptor 2B (Homo sapiens, UniProt P41595); assay: as §1, with “HTR2B” for “TMEM97”
[13] = target: T6, Muscarinic acetylcholine receptor M5 (Homo sapiens, UniProt P08912); assay: as §1, with “CHRM5” for “TMEM97”
T6 sequence (P08912 whole entry): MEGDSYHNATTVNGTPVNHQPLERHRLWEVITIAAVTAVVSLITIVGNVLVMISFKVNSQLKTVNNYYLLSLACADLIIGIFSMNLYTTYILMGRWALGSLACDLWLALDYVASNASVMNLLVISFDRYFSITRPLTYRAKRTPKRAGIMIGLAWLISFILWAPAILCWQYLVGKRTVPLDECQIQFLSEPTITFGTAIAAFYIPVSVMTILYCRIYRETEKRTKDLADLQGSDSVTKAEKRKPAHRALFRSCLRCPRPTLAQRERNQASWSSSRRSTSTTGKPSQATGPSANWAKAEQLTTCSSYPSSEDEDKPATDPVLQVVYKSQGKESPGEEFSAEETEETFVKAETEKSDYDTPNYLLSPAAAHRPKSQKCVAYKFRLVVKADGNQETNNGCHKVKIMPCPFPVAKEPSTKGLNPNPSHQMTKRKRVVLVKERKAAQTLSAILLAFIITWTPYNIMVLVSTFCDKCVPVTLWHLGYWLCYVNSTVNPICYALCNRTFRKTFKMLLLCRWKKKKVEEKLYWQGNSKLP

Row | Structure (SMILES) | pKi [1] | pKi [3] | pKi (D(3) dopamine receptor) | pKi [5] | pKi [9] | pKi [10] | pKi [11] | pKi (Translocator protein) | also measured
1 | CC1CCN(CC[C@H]2CCCN2S(=O)(=O)c2cccc(O)c2)CC1 | 7.99 | 6.51 | 6.25 | 5.93 | – | – | – | – | pKi [2]: < 5.00; pKi (Mu-type opioid receptor): 6.73; pKi (D(1B) dopamine receptor): < 5.00; pKi [4]: 6.35; pKi [6]: 5.76
2 | NC[C@@H]1O[C@H](C23CC4CC(CC(C4)C2)C3)Cc2c1ccc(O)c2O | 6.12 | 6.05 | 6.26 | 6.05 | 6.32 | – | – | – | pKi (D(1B) dopamine receptor): 8.52; pKi [6]: 7.14; pKi (D(4) dopamine receptor): 6.25; pKi [7]: 6.02; pKi [8]: 5.38
3 | Cc1csc2c(N[C@@H](C)CN3CCN(S(=O)(=O)c4ccc(Cl)c(Cl)c4)CC3)ncnc12 | 5.70 | – | 6.24 | – | – | 5.05 | 6.02 | 6.10 | pKi [4]: 6.31
4 | Cc1cc([C@@H](C)Nc2cccc(-c3cc(C)c(C(=O)N[C@@H](C)C(=O)O)c(C)c3)c2)ccc1Cl | – | – | 5.95 | < 5.00 | 6.40 | < 5.00 | – | 5.86 | pKi [12]: 5.61
5 | Cc1nc(C#Cc2ccnc(Cl)c2)c(C)n1-c1ccc(OC(F)(F)F)cc1 | 5.77 | < 5.00 | – | – | – | 5.16 | 5.57 | 5.71 | –
6 | N#Cc1ccc(NC(=O)Nc2ccccc2Br)c2nn[nH]c12 | – | – | – | – | 5.54 | 5.06 | – | 5.52 | –
7 | C[C@@H](NCCc1ccc(O)cc1)[C@@H](O)c1ccc(O)cc1 (relative stereo) | 5.57 | – | – | – | – | 5.43 | 6.23 | – | pKi [2]: 5.39; pKi (Mu-type opioid receptor): 5.10; pKi [7]: 5.59
8 | CC(C)NCC(O)c1ccc(N)c(C#N)c1 (centres undefined) [CIMATEROL] | – | – | – | – | – | 5.73 | – | – | –
9 | CCC[C@H](Oc1cc(C)c(-n2cc(C(F)(F)F)cn2)c(C)c1)c1ccc(C(=O)NCCC(=O)O)cc1 [PF-06291874] | – | – | – | < 5.00 | – | < 5.00 | – | – | pKi [13]: 5.07
